Measurements from US6451356B1, “Antibacterial composition comprising oenostacin from oenothera biennis” (Council of Scientific and Industrial Research, priority 2000, dated 2002).
≈ marks a conversion by molar mass, not a printed value. Like-named read-outs stand apart in the source and are kept apart here.

How the values were obtained:
Format in all cases: cell-based
Streptococcus mutans = experiment: MIC by two-fold broth dilution, S. mutans
Procedure: (§1) In order to identify the antibacterial chemical entities present in the EtOAc fraction 3 and 4 of O.biennis roots, the fractions are further run on silica gel column chromatography again eluting with varying proportions of chloroform and MeOH. Aliquots of eluate are run on TLC to check for the desired purity of the compound. The pure compounds thus obtained are analyzed for their antibacterial properties by two-fold broth dilution method to determine the minimal inhibitory concentration (MIC). […] The compounds CIM791 and 790 are identified as 3,5-dihydroxy-4-pent-4′-enoyl-1′-oxymethylbenzoic acid (Oenostacin) and gallic acid, respectively, using NMR spectral data.

Pseudomonas aeruginosa = experiment: MIC by two-fold broth dilution, P. aeruginosa; conditions: Table 5, read-out: Minimal inhibitory concentration (MIC) P. aeruginosa
Procedure: as §1

[1] = test system: Staphylococcus epidermidis; experiment: MIC by two-fold broth dilution, S. epidermidis; design: Minimal inhibitory concentration (MIC) S. epidermidis: unit not given here
Procedure: CIM 791 is tested for its minimal inhibitory concentration, which is a measure of the growth inhibitory potential of the compound and determined against S. epidermidis by two-fold broth dilution technique.
as §1

| MIC (Streptococcus mutans; read-out: MIC against Streptococcus mutans) | MIC (Pseudomonas aeruginosa) | MIC ([1]; Staphylococcus epidermidis, read-out: MIC against Staphylococcus epidermidis) | Minimal inhibitory concentration (MIC) S. epidermidis ([1]; Table 5) | MIC (Streptococcus mutans; Table 5, read-out: Minimal inhibitory concentration (MIC) S. mutans) | Compound | activity against Staphylococcus epidermidis (in words) [1] |
| --- | --- | --- | --- | --- | --- | --- |
| 625 µg/mL (≈ 3.67 mM) | 1250 µg/mL (≈ 7.35 mM) |  |  |  | O=C(O)c1cc(O)c(O)c(O)c1 [Gallic acid, gallic acid] |  |
|  |  | 31.5 µg/mL (≈ 0.118 mM) | 31.5 | 1250 µg/mL (≈ 4.69 mM) | COC(=O)CC/C=C/c1c(O)cc(C(=O)O)cc1O [Oenostacin, 3,5-dihydroxy-4-pent-4′-enoyl-1′-oxymethylbenzoic acid] | strong activity |
